Several values for one entry are separate records, joined by “and”; a condition that tells them apart may be missing. Equal values may be shown once.
Key:
ABCB1 = ABCB1 mRNA expression in LS180 cells (real-time RT-PCR); type: cell-based, human; conditions: for EC50 at 24 h / EC50 at 96 h / EC50 at 144 h: human, LS180 cells
Procedure: (§1) A random hexamer primer was used according to the manufacturer’s instructions. […] Experiments were performed in four independent biological replicates with technical duplicates (PCR runs) for each concentration.

P388 cells = test: Calcein assay in parental P388 cells; type: cell-based, murine
CYP3A4 [1] = test system: CYP3A4
Procedure: To determine CYP3A4 activity in LS180 cells after rifamycin treatment, 20,000 cells per well were seeded into 96-well plates and allowed to grow for 3 days until 70% confluency. […] Cells were washed twice with PBS and then pre-incubated with PBS + 2% FCS for 30 min at 37 °C. PBS was removed and replaced by 50 µL of 3 µM luciferin-IPA (selective CYP3A4 substrate) and incubated for 60 min at 37 °C. After incubation, 25 µL supernatant from each well was transferred to a white 96-well plate and 25 µL detection reagent (containing luciferase) was added. Cells were subsequently incubated for 20 min at room temperature. […] CYP3A4 activity was normalized to untreated controls.

[2] = design: method as in Zhang et al. [2008]; conditions: 300 mg rifabutin; ref Zhang et al. [2008]; cited from earlier work
[3] = cited from earlier work
mdr1a/b = test: Pgp inhibition calcein assay in P388/dx cells; type: cell-based, murine; conditions: for Emax Pgp inhibition: calcein assay, fold compared to untreated cells; for IC50: calcein efflux
Procedure: To investigate the potential Pgp inhibition by the rifamycins, the murine monocytic leukaemia cell line P388/dx (overexpressing the murine Pgp counterpart mdr1a/b (Boesch et al. [1991])) and the corresponding parental cell line P388 were used (kindly provided by Dr. D. Ballinari; Pharmacia & Upjohn, Milan, Italy). Cells were cultured under standard conditions with RPMI 1640 cell culture medium supplemented with FCS 10%, 2 mM glutamine, […] β-mercaptoethanol, 100 U/mL penicillin, and 100 µg/mL streptomycin sulphate. The culture medium of the P388/dx cell line was additionally supplemented with doxorubicin (final concentration: 0.45 µM) to maintain mdr1a/b expression. One day before the experiments, P388/dx cells were set to doxorubicin-free medium.
Pgp activity was determined using a calcein assay as described previously (Fröhlich et al. [2004]) with zosuquidar (10 µM) as a positive control.

LS180 cells = type: in vitro ADME; conditions: human
Procedure: The UPLC-MS/MS system consisted of a triple stage quadrupole mass spectrometer (Waters Xevo TQ-S, Milford, MA, USA) and an Acquity Classic UPLC® (Waters). Mass spectrometric analysis was performed by selective reaction monitoring using positive electrospray ionization. […] Because of their considerable molecular size, rifamycins were chromatographically separated on a Waters Peptide BEH C18 Column (300 Å, 1.7 μm, 2.1 mm × 50 mm) to foster optimal mass transfer kinetics. The mobile phase was composed of H20/ACN (95/5, v/v) + 0.1% FA (eluent A) and ACN + 0.1% FA (eluent B). […] The total run time was 4 min, and the column was heated to 60 °C. The injection volume was set to 20 μL with a flow rate of 0.5 mL/min. A pellet of untreated LS180 cells (500,000 cells/sample) was used for calibration standards and QC standard. […] Subsequently, proteins were precipitated with 110 μL ACN (uptake samples) or 100 μL ACN (calibration standards and QC standards). […] To determine intracellular rifamycin concentrations, measured compound concentrations were normalized to the total pellet volume. This was achieved by multiplying the measured mean cellular volume of a LS180 cell (CASY cell counter, Schärfe System, Reutlingen, Germany) by the mean cell number of four wells of an identically prepared and treated cell culture plate.

CYP3A4 [4] = test system: CYP3A4; remark: listed apart in the source
Procedure: as §1

Pgp = test: Induction of Pgp activity in LS180 cells (rhodamine123 efflux, flow cytometry); type: cell-based, human; conditions: LS180, 144 h exposure; for Emax Pgp activity (activation): fold compared to untreated cells; for EC50 at 144 h: human, LS180 cells, probe rhodamine123 (0.4 µM), with zosuquidar (10 µM), rhodamine123 efflux, read-out: EC50 Pgp activity (activation)
Procedure: To assess the induction of Pgp activity, 200,000 LS180 cells per well were seeded in a 6-well plate, cultured for 3 days and subsequently exposed to rifamycins for 144 h. After treatment, cells were harvested and subjected to the rhodamine efflux assay as described previously (Theile et al. [2013]; Weiss et al. [2008]). Briefly, cells were incubated with the fluorescent Pgp substrate rhodamine123 (0.4 µM) on a rotary shaker for 30 min at 37 °C under protection from light. Subsequently, cells were incubated with the selective Pgp inhibitor zosuquidar (10 µM) for 50 min at 37 °C on a rotary shaker. Medium without zosuquidar was used as a negative control. All washing steps were performed with ice-cold PBS at 4 °C. Intracellular rhodamine123 fluorescence was determined using a flow cytometer (MACSQuant analyzer 10, Miltenyi Biotec, Bergisch Gladbach, Germany). Thirty thousand cells were used for the analysis. For data evaluation, the ratio of zosuquidar-inhibited samples to non-inhibited samples of the rifamycin experiment was calculated and normalized to the ratio of untreated cell controls (no rifamycin treatment).

CYP3A4 [5] = target: CYP3A4 (Homo sapiens, UniProt P08684); conditions: microsomes
Procedure: For this purpose, rifamycins were tested between 0.5 to 50 µM. […] A reaction mixture without CYP3A4 was incubated as negative control. Luminescence signals were normalized to the untreated cell control.

[6] = LS180, 24 h, fold induction compared to untreated cells
[7] = LS180, 96 h, fold induction compared to untreated cells
[8] = LS180, 144 h, fold induction compared to untreated cells
[9] = LS180, 24 h, extracellular concentration
[10] = LS180, 24 h (24*), intracellular concentrations

Chain of CYP3A4 (Homo sapiens, UniProt P08684) (P08684 whole entry): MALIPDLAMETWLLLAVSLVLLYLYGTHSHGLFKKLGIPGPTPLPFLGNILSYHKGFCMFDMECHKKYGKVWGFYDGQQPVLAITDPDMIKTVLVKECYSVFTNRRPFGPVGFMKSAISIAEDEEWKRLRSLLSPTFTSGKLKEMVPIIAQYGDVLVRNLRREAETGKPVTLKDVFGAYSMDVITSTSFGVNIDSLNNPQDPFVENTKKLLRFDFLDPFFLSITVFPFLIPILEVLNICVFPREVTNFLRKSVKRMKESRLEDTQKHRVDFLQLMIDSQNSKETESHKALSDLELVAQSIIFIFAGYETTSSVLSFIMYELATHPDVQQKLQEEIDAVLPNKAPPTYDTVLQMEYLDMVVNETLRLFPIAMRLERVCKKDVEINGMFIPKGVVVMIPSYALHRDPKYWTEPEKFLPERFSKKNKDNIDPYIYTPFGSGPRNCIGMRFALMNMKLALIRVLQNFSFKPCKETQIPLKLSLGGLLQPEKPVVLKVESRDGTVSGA

Row | SMILES | Emax ABCB1 mRNA expression (ABCB1; [6]) [fold] | Emax ABCB1 mRNA expression (ABCB1; [7]) [fold] | Emax ABCB1 mRNA expression (ABCB1; [8]) [fold] | EC50 at 24 h (ABCB1; [9]) [µM] | EC50 at 96 h (ABCB1; LS180, 96 h) [µM] | EC50 at 144 h (ABCB1; LS180, 144 h) [µM] | intracellular calcein fluorescence (P388 cells) | Emax Pgp inhibition (mdr1a/b) [fold] | IC50 (mdr1a/b) [µM] | Emax Pgp activity (activation) (Pgp) [fold] | EC50 at 144 h (Pgp) [µM] | other results
1 | CO[C@H]1/C=C/O[C@@]2(C)Oc3c(C)c(O)c4c(c3C2=O)C2=NC3(CCN(CC(C)C)CC3)NC2=C(NC(=O)/C(C)=C\C=C\[C@H](C)[C@H](O)[C@@H](C)[C@@H](O)[C@@H](C)[C@H](OC(C)=O)[C@@H]1C)C4=O [Rifabutin] | 1.4 ± 0.024 | 2.8 ± 0.16 | 4.5 ± 0.71 | 1.1 ± 0.027 | 1.8 ± 1.1 | 1.5 ± 0.72 | remained unchanged | 4.9 ± 1.3 | 0.32 ± 0.1 | 2.8 ± 0.48 | 1.1 ± 0.16 | concentration dependence of CYP3A4 activity (CYP3A4 [1]): no concentration dependence; increase in CYP3A4 activity after exposure (CYP3A4 [1]): no detectable increase; expected drug concentration in the gut lumen [2]: approx. 1.4 mM; effect on dabigatran etexilate kinetics ([3]; 300 mg rifabutin, ref Lutz et al., CPT [2018b]): not affected; reduction of bioavailability of doravirine ([3]; repeated administration of 300 mg rifabutin, ref Khalilieh et al. [2018]): 50%; reduction of bioavailability of indinavir ([3]; repeated administration of 300 mg rifabutin, ref Kraft et al. [2004]): 34%; IC50 (mdr1a/b; listed as rifabutin): 0.3 µM; time to reach intracellular concentration equilibrium (LS180 cells): 6 h; molar metabolite-to-parent ratio (25-O-deacetyl metabolite) (LS180 cells; 10 µM): 0.002 to 0.006; increase of CYP3A4 mRNA levels (CYP3A4 [4]): twofold; lowering of CYP3A4 activity (CYP3A4 [5]; human): approx. 80%
2 | CO[C@H]1/C=C/O[C@@]2(C)Oc3c(C)c(O)c4c(O)c(c(/C=N/N5CCN(C)CC5)c(O)c4c3C2=O)NC(=O)/C(C)=C\C=C\[C@H](C)[C@H](O)[C@@H](C)[C@@H](O)[C@@H](C)[C@H](OC(C)=O)[C@@H]1C [Rifampicin] | 2.6 ± 0.068 | 5.1 ± 0.12 | 7.0 ± 0.53 | 8.6 ± 0.47 | 1.1 ± 0.056 | 1 ± 0.065 | remained unchanged | 4.3 ± 0.53 | 13 ± 4.1 | 3.2 ± 0.37 | 1 ± 0.0014 | EC50 (ABCB1; [10]): 37 ± 2 µM; Emax ABCB1 mRNA expression (ABCB1; LS180, 24 h (24*), intracellular concentrations, compared to untreated): 2.6 fold and 2.6 ± 0.068 fold; EC50 at 24 h (ABCB1; [10]): 37.4 µM; lowering of exposure to indinavir ([3]; repetitive administration of 600 mg standard dose of rifampicin, ref Avihingsanon et al. [2012]): approx. 90%; lowering of exposure to doravirine ([3]; repetitive administration of 600 mg standard dose of rifampicin, ref Yee et al. [2017]): approx. 90%; IC50 (mdr1a/b; listed as rifampicin): 12.9 µM
3 | CN(C)C(=N)N=C(N)N [metformin] |  |  |  |  |  |  |  |  |  |  |  | effect on CYP3A4 activity (CYP3A4 [5]): no effect
